pEC50: −log10 of the molar value.
What follows are compounds tested against Cationic amino acid transporter 3 (Homo sapiens, UniProt Q8WY07) (assay: Substrate uptake by the Cationic Amino Acid Transporter (CAT-3, SLC7A3) as assessed by the fluorescent FLIPR membrane potential dye in HEK-293 JumpIN-SLC7A3 cells (PubChem AID: 1745863)).
Format: functional, cell-based, HEK293

Cationic amino acid transporter 3, sequence (Q8WY07 whole entry): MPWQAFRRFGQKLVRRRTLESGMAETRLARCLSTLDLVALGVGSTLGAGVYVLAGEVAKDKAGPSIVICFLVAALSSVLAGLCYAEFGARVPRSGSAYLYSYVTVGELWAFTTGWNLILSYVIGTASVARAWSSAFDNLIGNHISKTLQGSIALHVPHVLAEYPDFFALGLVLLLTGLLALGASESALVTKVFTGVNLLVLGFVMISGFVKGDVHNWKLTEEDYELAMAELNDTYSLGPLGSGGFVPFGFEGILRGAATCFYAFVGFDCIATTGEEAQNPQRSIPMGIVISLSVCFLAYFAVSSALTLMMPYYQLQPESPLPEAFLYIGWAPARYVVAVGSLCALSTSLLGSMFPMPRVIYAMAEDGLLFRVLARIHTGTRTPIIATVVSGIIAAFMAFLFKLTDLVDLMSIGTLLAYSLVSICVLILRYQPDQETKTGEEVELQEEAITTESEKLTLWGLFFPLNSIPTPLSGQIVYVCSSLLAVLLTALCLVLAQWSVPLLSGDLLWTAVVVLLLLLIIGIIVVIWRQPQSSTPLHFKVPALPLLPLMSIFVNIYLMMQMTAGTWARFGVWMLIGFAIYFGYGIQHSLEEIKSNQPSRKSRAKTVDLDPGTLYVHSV

SMILES	pEC50
NCCC[C@H](N)C(=O)O	3.63
N=C(N)NCCC[C@H](N)C(=O)O [ARGININE]	3.55
NCCCC[C@H](N)C(=O)O [LYSINE]	3.80
